# Literature values as cited in patent publication US6040300A, “Method of preventing colon cancer with vitamin D3 analogues” (Arch Development Corporation, priority 1995, dated 2000).
# Legend:
# [1] = system: colon carcinogenesis induced by 1,2-dimethylhydrazine (DMH); conditions: dietary supplementation; high fat diet; cited from earlier work
# AOM metabolism = conditions: cited from earlier work
# [2] = system: MHC class I and II antigens; conditions: colonic tumor formation, AOM model; cited from earlier work
# suppressor T cell = conditions: cited from earlier work
# [3] = system: malignant cell lines, including several derived from human colon adenocarcinomas; conditions: in vitro; cited from earlier work
# [4] = system: chemically-induced colonic tumors; conditions: in vivo; cited from earlier work
# c-myc mRNA = conditions: HL-60 cells; cited from earlier work
# class II antigens = conditions: monocytes and lymphocytes; cited from earlier work
# [5] = system: ornithine decarboxylase (ODC); conditions: induced by various chemical carcinogens, preneoplastic period; cited from earlier work
structure (smiles),measurement,setting,value
"C=C1CC[C@H](O)C/C1=C/C=C1\CCC[C@]2(C)[C@@H]([C@H](C)CCCC(C)C)CC[C@@H]12 [vitamin D3, cholecalciferol]",inhibition of colon carcinogenesis incidence,[1],inhibit the incidence of colon carcinogenesis
c1cn[nH]c1 [pyrazole],inhibition of AOM metabolism,AOM metabolism,inhibition of AOM metabolism
CN1C(C(=O)Nc2ccccn2)=C(O)c2ccccc2S1(=O)=O [piroxicam],chemopreventive effect paralleled by MHC antigen alterations,[2],paralleled by alterations in the expression of these antigens
C[C@H](CCC(=O)O)[C@H]1CC[C@H]2[C@@H]3[C@@H](O)C[C@@H]4C[C@H](O)CC[C@]4(C)[C@H]3CC[C@]12C [ursodeoxycholic acid],chemopreventive effect paralleled by MHC antigen alterations,[2],paralleled by alterations in the expression of these antigens
"C=C1/C(=C\C=C2/CCC[C@]3(C)[C@@H]([C@H](C)CCCC(C)(C)O)CC[C@@H]23)C[C@@H](O)C[C@@H]1O [1α,25(OH)2 D3, 1α,25-dihydroxyvitamin D3]",suppressor T cell activity,suppressor T cell,promote suppressor T cell activity
same,inhibition of proliferation,[3],inhibit the proliferation of a number of malignant cell lines in vitro
same,protection against chemically-induced colonic tumors,[4],protect against the development of chemically-induced colonic tumors
same,c-myc mRNA expression,c-myc mRNA,decrease c-myc mRNA expression in HL-60 cells
same,expression of class II antigens,class II antigens,effect the expression of class II antigens by monocytes and lymphocytes
same,inhibition of increase in colonic mucosal ODC,[5],inhibit the increase in colonic mucosal ODC
"C=C1/C(=C\C=C2/CCC[C@]3(C)[C@@H]([C@H](C)CCCC(C)C)CC[C@@H]23)C[C@@H](O)C[C@@H]1O [1α(OH)D3, 1α-hydroxyvitamin D3]",protection against chemically-induced colonic tumors,[4],protect against the development of chemically-induced colonic tumors
